Source: patent US11564913B2, “Compositions and methods for treating cancer” (Children's Hospital Medical Center, priority 2019, dated 2023)

Experiments:
MDA-MB-231 cells [1] = test: Spheroid formation, hanging drop method; format: cell-based, human; conditions: before trituration
Procedure: FIG. 6: IODVA1 inhibits cell-substratum and cell-cell interactions. (A) IODVA1 impedes spreading of MCF7 and MDA-MB-231 cells on fibronectin. MCF7, T47D, and MDA-MB-231 cells were incubated on fibronectin coated coverslips for 10 min, then further incubated with the indicated concentrations of IODVA1 for 30 min in serum-free media, fixed and observed by bright field microscopy. Areas of single cells were calculated from 6 random fields (no less than 300 cells total per treatment group). Results shown are mean±s.e.m. of a single experiment and are representative of three independent experiments. (B) Effects of IODVA1 treatment on spheroid formation in MCF10A, MCF7, T47D, and MDA-MB-231 cells. […] Aggregates and spheroids were dissociated with accutase and trituration, and the number of live cells was determined by trypan blue exclusion. […]
Spheroids were formed by the hanging drop method or using ultra-low attachment (ULA) plates (Corning). […] Spheroid formation was monitored daily and imaged using EVOS microscope (Life Technologies). For assessment of attachment-free proliferation, the contents of the well were transferred into an Eppendorf tube, centrifuged at 100×g for 5 min, dissociated into a single cell suspension using trituration and Accutase (Invitrogen) treatment at room temperature and counted using trypan blue exclusion.

[2] = tested on: ST8814, MCF7, MDA-MB-231, and T47D cells; test: Cellular GI50s (summary of cell proliferation); format: cell-based
From the text: (§1) Applicants tested IODVA1's ability to inhibit the proliferation of cells harboring activated Ras and therefore its ability to recapitulate the compound obtained from the NCI. Applicants chose the NF1-associated malignant peripheral nerve sheath tumors (MPNST) cell line ST8814, which is characterized by active wild-type Ras (Basu et al., 1992; Mahller et al., 2006) and the triple negative breast cancer cell line MDA-MB-231 carrying the oncogenic KRAS^G13D mutation (Hollestelle et al., 2007). In addition, applicants used the non-transformed mammary epithelial cell line MCF10A (RAS^WT immortalized by a spontaneous t(3;9)(3p13;9p22) translocation that deletes the CDKN2A gene, also known as p16) and the non-invasive estrogen receptor (ER) and progesterone receptor (PR) positive RAS^WT breast cancer cell line MCF7 (wild-type p53) and T47D (mutant p53). Cells were grown in growth media containing IODVA1 at concentrations between 0.1 and 10 μM or vehicle control and cell number was counted using the trypan blue exclusion method. […] Appreciable decrease in proliferation of non-transformed MCF10A cells was not observed.
IODVA1 has two pyridine groups attached to a central imidazole group. […] To test this hypothesis, applicants evaluated the potential of IODVA1 to interfere with the ability of 369 recombinant wild-type kinases to hydrolyze ATP.

[3] = tested on: empty vector (Mieg3)-expressing Ba/F3 cells; test: Cell survival/viability, trypan blue exclusion; format: cell-based, murine; conditions: IODVA1
MCF7 cells = test: Cell proliferation, trypan blue exclusion counting; format: cell-based; conditions: Homo sapiens, read-out: estimated GI50
Procedure: (§2) FIG. 4. IODVA1 inhibits proliferation of cancer model cells. (A) IODVA1 is a potent cell proliferation inhibitor. MCF10A, MCF7, MDA-MB-231, and T47D cells were grown in the presence of the indicated IODVA1 concentrations and counted for 4 or up to 7 days. Each dot and bar is the mean±stdev respectively, of 3 independent experiments, with 2 technical replicates in each experiment. (B) Number of colonies made by MCF7, T47D, and MDA-MB-231 cells at the indicated IODVA1 concentrations. Results shown are mean±stdev of 2 independent experiments with 4 technical replicates each. (C) IODVA1 deactivates Ras at late incubation times. […] Quantification summary of 2 independent experiments is presented in the graph. n.s.—not significant, *-p<0.05, **-p<0.01, ****-p<0.0001. (D) IODVA1 inhibits proliferation of ST8814 cells. ST8814 cells were grown in the presence of the indicated IODVA1 concentrations and counted daily for 4 days. Each dot and bar is the mean and standard deviation respectively, of 3 independent experiments.
as §1

MCF10A cells = test: Cell proliferation, trypan blue exclusion counting; format: cell-based; conditions: 0.1 to 10 μM
Procedure: as §2, §1

MDA-MB-231 cells [4] = test: Cell proliferation, trypan blue exclusion counting; format: cell-based; conditions: Homo sapiens, read-out: estimated GI50
Procedure: as §2, §1

T47D cells = test: Cell proliferation, trypan blue exclusion counting; format: cell-based; conditions: Homo sapiens, read-out: estimated GI50
Procedure: as §2, §1

ST8814 cells = test: Cell proliferation, trypan blue exclusion counting; format: cell-based; conditions: ST88-14, 96 h; day 4; read-out: 50% growth inhibitory concentration (GI50)
Procedure: as §2, §1

## OC1(c2ccccn2)N=C(Nc2nc3ccccc3[nH]2)N=C1c1ccccn1 (centres unmarked) [IODVA1, (Z)-2-((1H-benzo[d]imidazol-2-yl)imino)-4,5-di(pyridin-2-yl)-2,5-dihydro-1H-imidazol-5-ol]
MDA-MB-231 cells [1]
  aggregate formation: not affected
[2]
  GI50: 0.5 to 1 µM
[3]
  inhibition of survival: not
MCF7 cells
  GI50: ≤ 1 µM
MCF10A cells
  appreciable decrease in proliferation: not observed
MDA-MB-231 cells [4]
  GI50: ≤ 1 µM
T47D cells
  GI50: ≤ 1 µM
ST8814 cells
  GI50: 1 µM
